Entries after “also recorded” stand apart in the source; their conditions may differ. Where two headings read alike, the source gives them in different places.
Legend:
[1] = system: COX-2 transgenic mice; conditions: mouse, in vivo; cited from earlier work
[2] = system: C57BL/6 mice; assay: IR-induced early soft tissue (skin) toxicity in mice; type: in vivo, mouse; conditions: for skin damage score: day 19 after 30 Gy single dose IR, EsA 10 mg/kg i.p., Celebrex 50 mg/kg intragastric, 16 h before then daily, Table 4 criteria 1.0 normal to 5.0 necrosis, control above 4.5
Method: EsA protects the soft tissue from IR-induced damage. IR sensitive and IL1β high expressing C57BL/6 mice are irradiated with 30 Gy and the skin damage is measured with a preclinical criteria (Table 4).
The effect of EsA was examined with this model system. […] The difference was statistically significant (FIG. 7).
A repeat experiment was performed with an increased number of mice (10 mice/group), and the EsA protective effect was confirmed.

[3] = cited from earlier work
[4] = system: ICAM-1 and CD18; conditions: LPS-induced; cited from earlier work
[5] = biological target: T1, ovine COX-1 (Ovis aries, UniProt P05979); assay: Cayman COX Inhibitor Screening Assay, COX-1; type: biochemical; conditions: prostanoid quantified by EIA
T1 construct: purchased Cayman 560131
T1 sequence (P05979 25-600): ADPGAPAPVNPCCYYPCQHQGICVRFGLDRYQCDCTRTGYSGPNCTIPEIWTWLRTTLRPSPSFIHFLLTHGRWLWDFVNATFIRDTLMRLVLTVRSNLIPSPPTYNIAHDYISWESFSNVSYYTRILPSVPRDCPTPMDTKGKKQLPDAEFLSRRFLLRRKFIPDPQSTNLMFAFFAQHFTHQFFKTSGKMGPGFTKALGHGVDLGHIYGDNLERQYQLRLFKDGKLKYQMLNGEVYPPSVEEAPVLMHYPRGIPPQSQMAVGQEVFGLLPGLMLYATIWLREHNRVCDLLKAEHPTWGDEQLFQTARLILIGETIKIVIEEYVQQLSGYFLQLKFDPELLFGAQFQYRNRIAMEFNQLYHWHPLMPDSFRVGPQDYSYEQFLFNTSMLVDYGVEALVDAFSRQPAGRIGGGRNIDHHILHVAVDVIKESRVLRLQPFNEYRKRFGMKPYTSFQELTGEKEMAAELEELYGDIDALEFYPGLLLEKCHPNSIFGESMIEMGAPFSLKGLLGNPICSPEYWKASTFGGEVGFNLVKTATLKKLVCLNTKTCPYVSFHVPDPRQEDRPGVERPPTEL
Text: (§1) It is known that constitutive COX-1 and inducible COX-2 catalyze the production of prostaglandins (PGs) from arachidonic acid. The Cayman COX Inhibitor Screening Assay kit directly measures PGF2α produced by SnCl2 reduction of COX-derived PGH2. The prostanoid product is quantified via enzyme immunoassay (EIA) using a broadly specific antibody that binds to all the major prostaglandin compounds (FIG. 15A). To distinguish the inhibition of COX-1 from COX-2, both ovine COX-1 and human recombinant COX-2 enzymes were used as targets. […] EsA is a novel COX-2 inhibitor, which accounts for its observed protective effects on skin (FIGS. 5-7) and brain (FIGS. 8-9).

[6] = system: mouse; assay: Alopecia and hair regrowth after 30 Gy irradiation; type: in vivo
[7] = system: VEGF production by mouse fibroblast L-929; assay: VEGF production by fibroblasts; type: cell-based; conditions: FIG. 10
[8] = system: sensitized mice; conditions: mouse, in vivo; cited from earlier work
[9] = system: C57BL/6 mice; conditions: 40 Gy whole head; EsA 10 mg/kg i.p., Dex 3 mg/kg i.v. before IR; brains taken 24 h later; P<0.05
Method: 16 hour before the whole heads of mice were irradiated at 40 Gy.
The mice without radiation served as negative controls. Twenty four hours later, the whole brain was taken out, weighed (wet weight), placed on aluminum foil and placed in an oven at 60° C. At different time points (10 min intervals for the first 2 hours and then 4, 6, 24 hr), the brains were weighed, and the results were expressed as: % water={(wet weight−dry weight)/wet weight}×100%. The higher the % water, the greater the severity of edema. Brain % water as a function of time provided a brain drying curve.

[10] = biological target: T2, glucocorticoids receptor (GR) (Mus musculus, UniProt P06537); assay: CAT reporter assay for hormone transactivity in E8.2.A3 cells, GR; type: cell-based; conditions: 44 hours; EsA 0.4 ng/ml to 40000 μg/ml; Dex 5×10^−7 M
T2 construct: expressed in transfected cells
T2 sequence (P06537 whole entry): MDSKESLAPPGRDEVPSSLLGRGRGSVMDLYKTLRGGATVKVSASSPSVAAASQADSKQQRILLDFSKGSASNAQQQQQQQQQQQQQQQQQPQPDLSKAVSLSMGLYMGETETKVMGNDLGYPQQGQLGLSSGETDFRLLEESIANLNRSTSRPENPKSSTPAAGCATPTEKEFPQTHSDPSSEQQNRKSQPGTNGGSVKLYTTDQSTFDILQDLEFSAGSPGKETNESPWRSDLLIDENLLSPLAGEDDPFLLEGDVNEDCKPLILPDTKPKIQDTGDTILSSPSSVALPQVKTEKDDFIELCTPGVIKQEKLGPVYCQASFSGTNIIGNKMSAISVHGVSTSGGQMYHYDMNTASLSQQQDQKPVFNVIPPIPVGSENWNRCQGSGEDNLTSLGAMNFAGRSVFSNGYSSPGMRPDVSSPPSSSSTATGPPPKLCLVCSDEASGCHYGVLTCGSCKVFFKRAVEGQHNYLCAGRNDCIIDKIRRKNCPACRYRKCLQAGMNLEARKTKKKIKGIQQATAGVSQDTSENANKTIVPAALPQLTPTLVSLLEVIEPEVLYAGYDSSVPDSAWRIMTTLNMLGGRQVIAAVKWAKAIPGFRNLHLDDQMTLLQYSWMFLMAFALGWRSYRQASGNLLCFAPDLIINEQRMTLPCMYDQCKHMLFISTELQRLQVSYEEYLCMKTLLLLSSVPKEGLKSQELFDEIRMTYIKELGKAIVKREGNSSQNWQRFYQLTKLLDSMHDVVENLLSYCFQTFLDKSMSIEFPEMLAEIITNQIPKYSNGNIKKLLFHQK
Method: (§2) Structurally, EsA has a certain similarity with steroidal hormone, especially a steroid-like back-bone. […] A sensitive reporter system for the hormone transactivity of glucocorticoids receptor (GR) and androgen receptor (AR) was set up as elucidated in the chart (FIG. 12). […] Individual clones with stably transfected mGR and CAT reporter gene were selected with 400 μg/ml of G418 in DMEM medium containing 3% charcoal stripped new born calf serum. […] The treated cells were washed with phosphate buffer saline (PBS) once. To each well, 0.25 ml of 0.25M Tris-HCl was added. The plates underwent 3 cycles of freeze and thaw at −70° C. and room temperature followed by heating at 65° C. for 10 min by floating the plates in a hot water bath. Then, 0.1 ml of cell lysate from each well was used for the CAT assay. […] Briefly, 100 μl of cell lysate from each well were mixed with 150 μl reaction solution (128 μl of 0.25 M Tris-HCl, pH 7.8, 2 μl of the commercial ^3H-acetyl CoA and 20 μl of 2 mg/ml chloramphenicol) in the scintillation vials. To each vial, 2 ml non-aqueous scintillation fluid was added and mixed with the reaction by shaking or vortexing. The vials were counted 3-6 times in a scintillation counter at regular intervals over 1 to 4 hours.

[11] = system: activated thymocytes; conditions: cited from earlier work
[12] = system: rat hind paws; conditions: cited from earlier work; for swelling of hind paws: induced by carrageenan
[13] = system: peritoneal macrophages; conditions: macrophages from mice pretreated with thioglycolate; cited from earlier work
[14] = system: TNF production by Raw264.7; assay: TNF production by macrophages with LPS and radiation; type: cell-based, mouse; conditions: FIG. 31, LPS and radiation
[15] = system: IL1β production in Raw 264.7 macrophage cells; assay: IR-induced IL1β production (ELISA) in Raw 264.7; type: cell-based, mouse; conditions: 2 Gy, 24 hours culture
Method: IL1β is crucial mediator in early IR toxicity of both brain and soft tissue. […] The protective effect of EsA on early IR toxicity results in part from this effect. First we determined the optimal IR dose to induce IL1 production in Raw 264.7 macrophage cells. Equal numbers of cells were exposed to 0, 2, 4 and 8 Gy IR and 24 hours later, the conditioned media were harvested and 100 μl of media from each sample was measured for IL1β concentration by specific IL1β ELISA using monoclonal antibodies (purchased from R&D Systems, Inc). […] Therefore, 2 Gy was used as optimal IR dose for Raw 264.7 for this set of tests. The cells were treated with 0.1 or 1 μg/ml of EsA for 18 hours, irradiated at 2Gy and then cultured for another 24 hours. The media were measured for protein level of IL1β by ELISA.

[16] = system: NO production in THP-1; assay: IR-induced NO production in THP-1; type: cell-based, human; conditions: 0.1, 0.5 and 5 μg/ml EsA; NO up-regulated 5 fold 4 hours after IR
Method: (§3) The anti-tumor effectiveness of IR is based in part on triggering the reactive oxygen species and free radicals in tumors; meanwhile, IR also damages normal tissues and causes unwanted toxicity.
(§4) The study was carried out in Raw264.7 cells that were irradiated with 0, 2, 4 and 8 Gy. […] At this optimal condition, EsA (0.5 or 5 μg/ml) was added 8 hours before the IR at 4 Gy and 24 hours later, the media was harvested and 100 μl of media was measured for NO content in the form of nitrite. […] To see if this inhibition was cell line specific, another human macrophage cell line THP-1 was examined.

[17] = system: IL1β production in A431 human epidermoid carcinoma cells; assay: IR-induced IL1β production (ELISA) in A431; type: cell-based
[18] = system: NO production in Raw264.7; assay: IR-induced NO production (nitrite, Griess) in Raw264.7; type: cell-based, mouse; conditions: EsA 0.5 or 5 μg/ml added 8 hours before 4 Gy; media 24 hours later
Method: as §3, §4

[19] = system: autoimmunity animal model; conditions: in vivo; cited from earlier work
[20] = system: granuloma induced by cotton pellet; conditions: cited from earlier work
[21] = system: Lewis' lung carcinoma cells; assay: Tumor growth of Lewis' lung carcinoma in syngeneic mice; type: in vivo, mouse; conditions: daily for 20 days, same dose as in soft tissue protection
Text: Considering that EsA is used as a radioprotector in patients with tumors, its effect on tumor growth is a critical issue for its application.

[22] = biological target: T3, androgen receptor (AR) (Mus musculus, UniProt P19091); assay: CAT reporter assay for hormone transactivity in E8.2.A3 cells, AR; type: cell-based; conditions: 44 hours; EsA 0.4 ng/ml to 40000 μg/ml; DHT 5×10^−7 M
T3 construct: contain high levels of AR; endogenous in cells; host or cells: E8.2.A3 cells (mouse L cell fibroblast variant)
T3 sequence (P19091 whole entry): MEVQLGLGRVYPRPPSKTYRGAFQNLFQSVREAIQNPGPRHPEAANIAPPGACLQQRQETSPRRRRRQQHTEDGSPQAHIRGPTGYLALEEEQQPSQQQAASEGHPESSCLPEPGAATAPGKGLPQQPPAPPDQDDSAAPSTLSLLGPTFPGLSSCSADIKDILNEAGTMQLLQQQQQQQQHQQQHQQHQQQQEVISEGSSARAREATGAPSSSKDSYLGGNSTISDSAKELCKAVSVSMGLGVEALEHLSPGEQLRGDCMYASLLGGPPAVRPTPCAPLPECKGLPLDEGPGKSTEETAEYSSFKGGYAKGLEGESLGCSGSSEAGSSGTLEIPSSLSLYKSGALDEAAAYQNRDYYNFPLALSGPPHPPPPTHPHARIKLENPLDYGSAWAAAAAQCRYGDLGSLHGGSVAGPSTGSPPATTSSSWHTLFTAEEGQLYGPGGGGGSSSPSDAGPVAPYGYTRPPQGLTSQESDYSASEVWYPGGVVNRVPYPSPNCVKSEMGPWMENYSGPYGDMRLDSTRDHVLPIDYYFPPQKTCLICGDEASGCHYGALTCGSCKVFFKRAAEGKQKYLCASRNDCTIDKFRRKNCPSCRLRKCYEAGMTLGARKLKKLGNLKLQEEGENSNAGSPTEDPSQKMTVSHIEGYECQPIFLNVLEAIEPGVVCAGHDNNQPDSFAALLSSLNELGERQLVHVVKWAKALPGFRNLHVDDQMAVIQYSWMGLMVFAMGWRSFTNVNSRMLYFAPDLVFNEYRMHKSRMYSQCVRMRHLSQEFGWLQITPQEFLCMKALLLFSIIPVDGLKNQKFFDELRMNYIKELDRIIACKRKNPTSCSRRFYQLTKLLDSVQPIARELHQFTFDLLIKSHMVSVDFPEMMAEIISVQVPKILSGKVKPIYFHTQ
Method: as §2

[23] = system: murine ears; conditions: induced by zylene, acute inflammation model; cited from earlier work
[24] = system: prostaglandin E2 (PGE2), platelet-activating factor (PAF), and nitric oxide (NO); conditions: cited from earlier work
[25] = system: IL1α production by RAW264.7; assay: IL1α production by macrophages; type: cell-based, mouse; conditions: FIG. 29, in vitro macrophages
[26] = system: mice; conditions: following LPS challenge; cited from earlier work
[27] = biological target: T4, human recombinant COX-2 (Homo sapiens, UniProt P35354); assay: Cayman COX Inhibitor Screening Assay, COX-2; type: biochemical; conditions: prostanoid quantified by EIA
T4 construct: purchased Cayman 560131
T4 sequence (P35354 18-604): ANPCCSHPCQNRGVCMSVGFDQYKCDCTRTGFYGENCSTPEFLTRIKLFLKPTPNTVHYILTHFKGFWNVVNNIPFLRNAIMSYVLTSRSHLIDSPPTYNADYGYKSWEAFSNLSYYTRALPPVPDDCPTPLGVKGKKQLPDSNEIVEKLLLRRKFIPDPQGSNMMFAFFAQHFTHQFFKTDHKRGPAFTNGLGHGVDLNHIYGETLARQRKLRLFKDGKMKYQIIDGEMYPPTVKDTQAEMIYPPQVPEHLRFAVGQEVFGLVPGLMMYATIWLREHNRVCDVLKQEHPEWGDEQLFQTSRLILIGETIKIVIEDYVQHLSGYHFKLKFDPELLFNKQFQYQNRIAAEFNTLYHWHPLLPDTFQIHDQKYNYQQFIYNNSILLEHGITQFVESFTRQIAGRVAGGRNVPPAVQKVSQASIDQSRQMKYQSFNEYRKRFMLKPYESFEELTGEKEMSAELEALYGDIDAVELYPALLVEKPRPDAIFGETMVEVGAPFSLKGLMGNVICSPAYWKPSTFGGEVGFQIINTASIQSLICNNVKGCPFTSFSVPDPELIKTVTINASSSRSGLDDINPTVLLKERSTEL
Text: as §1

[28] = system: activated splenocytes; conditions: cited from earlier work
[29] = system: E8.2.A3 cells; assay: Morphological changes and cell death in reporter cells; type: cell-based, mouse; conditions: 44 hours, observed twice a day
[30] = system: activated macrophages; conditions: cited from earlier work
[31] = system: IR brain edema; conditions: cited from earlier work
[32] = relative long-term use (>2-3 weeks after IR)

Structure (SMILES): COc1ccc2c(c1)c(CC(=O)O)c(C)n2C(=O)c1ccc(Cl)cc1 [indomethacin]
- microvessel density [1]: strongly decreased
- tumor progression [1]: inhibited
- upregulation of angiogenic regulatory genes in mammary tissue [1]: inhibited

Structure (SMILES): Cc1ccc(-c2cc(C(F)(F)F)nn2-c2ccc(S(N)(=O)=O)cc2)cc1 [Celebrex, celecoxib, reference compound]
- skin damage score [2]: about 3

Structure (SMILES): COC(=O)[C@@]1(C)CC[C@]2(C(=O)O)CC[C@]3(C)C(=CC[C@@H]4[C@@]5(C)C[C@H](O)[C@H](O[C@@H]6OC[C@@H](O[C@@H]7O[C@H](CO)[C@@H](O)[C@H](O)[C@H]7O)[C@H](O)[C@H]6O)[C@@](C)(CO)[C@@H]5CC[C@]43C)[C@@H]2C1 [EsA, Esculentoside A]
- water-solubility [3]: high water-solubility
- expression of adhesion molecules ICAM-1 and CD18 [4]: suppressed
- effect on COX-1 [5]: no effect
- hair regrowth / duration of alopecia ([6]; 30 Gy, Celebrex i.g. 50 mg/kg for 20 days): after two weeks
- recovery of cranial alopecia ([6]; EsA compared with celebrex): recovered more quickly and completely
- VEGF production [7]: inhibitory effect
- serum hemolysin concentration [8]: markedly decreased
- brain edema (% water) [9]: reduction of brain edema was statistically significant; also recorded: less extensive brain edema; also recorded: can reduce IR-induced brain edema
- glucocorticoidal hormone transactivity (CAT activity) [10]: neither androgen nor glucocorticoidal hormone transactivity
- apoptosis of activated thymocytes [11]: accelerated
- duration of the effects ([12]; acute inflammation models): more than 5 hours
- swelling of hind paws ([12]; adrenalectomised rat): suppressed
- swelling of hind paws [12]: inhibited
- release of TNF, IL-1 and IL-6 [13]: significantly reduced
- TNF production [14]: inhibitory effect
- IR-induced production of IL1β ([15]; EsA 0.1 μg/ml for 18 hours): dramatically inhibited; also recorded: reduced
- IR-induced production of IL1β ([15]; EsA 1 μg/ml for 18 hours, P<0.01): reduced the IL1β to the basal level
- reduction of NO production [16]: 3 fold
- IL1β induced by IR ([17]; EsA 0.1 μg/ml, 4 Gy, P<0.01): inhibited; also recorded: reduced
- IL1β production induced by IR in vitro in epithelial cells ([17]; FIG. 27): inhibitory effect
- IR-induced NO production [18]: inhibited
- inflammation of joint and viscera [19]: decreased
- proliferation of granuloma [20]: significantly inhibited
- tumor growth [21]: little effect on tumor growth
- protection of soft tissue ([2]; 4 weeks after 30 Gy IR, same dosing): effectively protected the soft tissue
- skin damage score [2]: about 2
- early IR skin toxicity [2, 32]: prevented
- second wave of IL1β [2, 32]: blocked
- signs of sickness ([2]; whole course of EsA treatment): no signs of sickness were observed
- androgen hormone transactivity (CAT activity) [22]: neither androgen nor glucocorticoidal hormone transactivity
- swelling of ears [23]: markedly lowered
- production of PGE2, PAF and NO [24]: inhibited
- IL1α production [25]: inhibitory effect
- TNF, IL-1 and IL-6 levels in the sera [26]: dose-dependently decreased
- effect on COX-2 [27]: inhibited the COX-2 in a dose-dependent manner
- production of IL-2 [28]: inhibited
- concentration at which death of cells was observed [29]: 40000 µg/mL
- concentration with no morphological change of cells [29]: below 4 mg/ml
- macrophage functions (phagocytosis, antibody production, secretion of cytokines) [30]: diminished

Structure (SMILES): CS(=O)(=O)Nc1ccc([N+](=O)[O-])cc1OC1CCCCC1 [NS-398]
- induction of prostanoid and IR brain edema ([31]; Moore et al. 2004): blocked
- IR toxicity in brain and soft tissue ([31]; mouse, in vivo): protected
